Active and inactive are the calls of the source. The calls are words filed in the database; no cut-off is given here.
Biological target: T1, Histone-lysine N-methyltransferase SETD7 (Homo sapiens) (UniProt Q8WTS6)
T1 sequence (whole entry): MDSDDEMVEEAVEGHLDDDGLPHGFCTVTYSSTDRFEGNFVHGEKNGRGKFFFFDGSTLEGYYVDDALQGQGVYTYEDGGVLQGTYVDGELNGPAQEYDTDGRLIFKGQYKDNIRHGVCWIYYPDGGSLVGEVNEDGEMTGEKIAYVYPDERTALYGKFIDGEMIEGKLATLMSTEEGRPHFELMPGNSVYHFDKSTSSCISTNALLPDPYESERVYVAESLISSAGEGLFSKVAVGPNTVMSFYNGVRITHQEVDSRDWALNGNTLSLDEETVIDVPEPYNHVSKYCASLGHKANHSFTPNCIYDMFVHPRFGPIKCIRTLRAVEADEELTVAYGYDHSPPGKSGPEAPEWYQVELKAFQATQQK
Test: Inhibition of human recombinant SET7/9 in cell free system assessed as monomethylation of histone H3 Lys4 residue after 1 hr in presence of 2 uM AdoMet

inhibition	Compound
Active	Nc1ncnc2c1ncn2[C@@H]1O[C@H](CN(CCNCCc2ccccc2)CC[C@H](N)C(=O)O)[C@@H](O)[C@H]1O
Active	CCCNCCN(CC[C@H](N)C(=O)O)C[C@H]1O[C@@H](n2cnc3c(N)ncnc32)[C@H](O)[C@@H]1O

The remaining lines, values behind:

Compound	inhibition
CCCCCCNCCN(CC[C@H](N)C(=O)O)C[C@H]1O[C@@H](n2cnc3c(N)ncnc32)[C@H](O)[C@@H]1O	Active
CCCCCCN(CC[C@H](N)C(=O)O)C[C@H]1O[C@@H](n2cnc3c(N)ncnc32)[C@H](O)[C@@H]1O	inactive
CNCCN(CC[C@H](N)C(=O)O)C[C@H]1O[C@@H](n2cnc3c(N)ncnc32)[C@H](O)[C@@H]1O	Active
